The record followed here is patent US5910482A (priority 1996, dated 1999).

For data set [1], the system named is pregnant rats. The data set is described as follows: Effects of L-NAME infusion on systolic blood pressure in pregnant rats. It is filed as in vivo, rat. Conditions: n = 5. As for the experimental part:
The effects of hypertensive agent L-NAME (50 mg/rat) on blood pressure were studied. […] L-NAME was infused as described in the FIG. 2.

Data set [2] relates to pregnant rats. The data set can be described thus: Delivery day and pup survival after L-NAME infusion to pregnant rats; effect of CGRP on fetal survival. The data set is classed as in vivo. The following applies: L-NAME 50/mg/day infusion to pregnant rats; 5 animals.

With `COC(=O)[C@@H](N)CCCNC(=N)N[N+](=O)[O-]` [L-NAME, N^G -nitro-L-arginine methyl ester], the “Systolic Blood Pressure” value in the data set on pregnant rats [1] (Gestational Day 17 (before infusion start on day 18), L-NAME 50 mg/day) came to 116 ± 3 mm Hg; with pregnant rats [1] (Gestational Day 18, L-NAME 50 mg/day infused from day 18) it was 137 ± 6 mm Hg; with pregnant rats [1] (Gestational Day 19, L-NAME 50 mg/day infused from day 18) it was 154 ± 3 mm Hg; with pregnant rats [1] (Gestational Day 22, L-NAME 50 mg/day infused from day 18), 137 ± 8 mm Hg; in the data set on pregnant rats [1] (Postpartum PP Day 1, L-NAME 50 mg/day), 145 ± 5 mm Hg; in the data set on pregnant rats [1] (Postpartum PP Day 2, L-NAME 50 mg/day), 140 ± 5 mm Hg. In addition, in the data set with pregnant rats [2], the “# of dead pups” value is reported as 10. In addition, the Weight of pups in the data set with pregnant rats [2] stood at 5.14 ± 0.07 g.
